Here are results for 22 compounds from EP4206196A1, “PYRIMIDINE SUBSTITUTED DERIVATIVES AS TYK2 INHIBITORS” (Almirall S.A., priority 2021, dated 2023).

pIC50, pKd: −log10 of the molar value. A value given as a limit tells only on which side of the number the result lay.

The test system of experiment [1] is STAT1/3 through TYK2/JAK1. In words: IFNa induced STAT phosphorylation in HEK293 cells (SIE-bla reporter gene). Conditions: Homo sapiens, HEK293; HEK293T-sie-bla cells, IFNa at EC80, 4 hours; read-out: Inhibition of IFNa induced STAT phosphorylation HEK293 cells IC50. The class given is cell-based. As for the experimental part: Stimulation of HEK293T-sie-bla cells with interferon alpha (INFa) activates the signaling pathway of STAT1/3 through TYK2/JAK1. In this assay, measurement of the activity of the reporter gene […]-lactamase expression was used as the readout.
CellSensorTM SIE-bla HEK293T cell line were purchased from Thermo Fisher Scientific (ref. #K1649B) and cultured as specified by the provider. A number of 30.000 cells per well (40 µl) were plated in a 384-well plate (Corning ref.# 3712) and cultured overnight at 37°C with 5% CO2 in a complete Optimem media (ThermoFisher ref. #11058-021) containing 0.5% (v/v) heat inactivated dialyzed FBS (Life Technologies ref. #26400044), 10 µM non-essential aminoacids NEAA (Sigma ref. #M7145), 100 µM Sodium Pyruvate (Gibco ref. #11360-039) and 100 U/mL Penicillin (Sigma ref. #P0781). Compounds were initially dissolved in 100% DMSO. Compound curves were then prepared using a 1/5 serial dilution (10 dilutions). The dilutions were directly diluted in complete Optimem media at 40-fold their final concentration in 20% DMSO. IFNa initial solution (R&D systems ref. #11100-1) was prepared at 10-fold its EC80 in complete Optimem media. Compounds and IFNa were added simultaneously to the wells with cells and incubated during 4 hours at 37°C (the final DMSO was 0.1%). The […]-lactamase substrate (LifeTechnologies ref.#K1138) was prepared at 6-fold its final concentration as specified by the provider. Then 10 µL of the mixture was added to the wells to stop the stimulation. Plate was left in the dark over-night. Then a FRET reading was performed on an appropriate plate reader.
All experiments were analysed using an ExcelFit template and the four-parameter log equation. […] TABLE 2: IC50 Inhibitions of IFNa induced STAT phosphorylation in HEK293 cells
Background: A reporter such as luciferase makes a cellular process visible.

Experiment [2] concerns the target T1, TYK2 (JH2domain-pseudokinase) (Homo sapiens, UniProt P29597).
T1 construct: TYK2 (JH2domain-pseudokinase)-tagged T7 phage strains were prepared in an E. coli host derived from the BL21 strain; made in house; host or cells: E. coli BL21-derived host (T7 phage) or HEK-293 cells
Description: TYK2 JH2 domain binding assay (KINOMEscan). Here is the method:
TYK2 (JH2domain-pseudokinase) KINOMEscan assay. For the assay, TYK2 (JH2domain-pseudokinase)-tagged T7 phage strains were prepared in an E. coli host derived from the BL21 strain.E. coli were grown to log-phase and infected with T7 phage and incubated with shaking at 32°C until lysis. The lysates were centrifuged and filtered to remove cell debris. The remaining TYK2 (JH2domain-pseudokinase) were produced in HEK-293 cells and subsequently tagged with DNA for qPCR detection. Streptavidin-coated magnetic beads were treated with biotinylated small molecule ligands for 30 minutes at room temperature to generate affinity resins for kinase assays. The liganded beads were blocked with excess biotin and washed with blocking buffer (SeaBlock (Pierce), 1% BSA, 0.05% Tween 20, 1 mM DTT) to remove unbound ligand and to reduce non-specific binding. Binding reactions were assembled by combining TYK2 (JH2domain-pseudokinase), liganded affinity beads, and test compounds in 1x binding buffer (20% SeaBlock, 0.17x PBS, 0.05% Tween 20, 6 mM DTT). Test compounds were prepared as 111X stocks in 100% DMSO. Kds were determined using an 11-point 3-fold compound dilution series with three DMSO control points. All compounds for Kd measurements are distributed by acoustic transfer (non-contact dispensing) in 100% DMSO. The compounds were then diluted directly into the assays such that the final concentration of DMSO was 0.9%. All reactions performed in polypropylene 384-well plate. Each was a final volume of 0.02 ml. The assay plates were incubated at room temperature with shaking for 1 hour and the affinity beads were washed with wash buffer (1x PBS, 0.05% Tween 20). The beads were then re-suspended in elution buffer (1x PBS, 0.05% Tween 20, 0.5 µM non-biotinylated affinity ligand) and incubated at room temperature with shaking for 30 minutes. The kinase concentration in the eluates was measured by qPCR. […]
An 11-point 3-fold serial dilution of each test compound was prepared in 100% DMSO at 100x final test concentration and subsequently diluted to 1x in the assay (final DMSO concentration = 1%). Most Kds were determined using a compound top concentration = 30,000 nM. If the initial Kd determined was < 0.5 nM (the lowest concentration tested), the measurement was repeated with a serial dilution starting at a lower top concentration.
Curves were fitted using a non-linear least square fit with the Levenberg-Marquardt algorithm. […] TABLE 1: Kd Affinities for Tyk2 JH2 Domain Binding Assay.

T1 sequence (P29597 589-875 limits assumed): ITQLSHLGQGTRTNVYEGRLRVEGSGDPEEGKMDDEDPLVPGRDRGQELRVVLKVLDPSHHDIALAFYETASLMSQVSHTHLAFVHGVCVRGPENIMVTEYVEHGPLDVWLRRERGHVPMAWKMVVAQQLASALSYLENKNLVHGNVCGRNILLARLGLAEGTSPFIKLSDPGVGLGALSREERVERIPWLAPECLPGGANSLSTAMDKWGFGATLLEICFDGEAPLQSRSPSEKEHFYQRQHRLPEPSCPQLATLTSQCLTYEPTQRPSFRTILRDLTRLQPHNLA

For orientation: pIC50 means −log10 of the IC50, conventionally taken in molar units. One may read the pKd as −log10 of the Kd, conventionally taken in molar units. A higher pKd goes with a small Kd. Turning to `COc1cccc(Nc2cc(Nc3cc(C)nc(C)n3)ncn2)c1` [Example 5, N6-(2,6-dimethylpyrimidin-4-yl)-N4-(3-methoxyphenyl)pyrimidine-4,6-diamine], in experiment [1], the pIC50 is less than 6.00. In addition, the pKd in experiment [2] is 8.00 to 9.00. For the compound `Cc1c(-c2cnc(Nc3cc(NC(=O)C4CC4)ncn3)c(P(C)(C)=O)c2)cnn1C` [Example 161, N-[6-[[3-dimethylphosphoryl-5-(1,5-dimethylpyrazol-4-yl)-2-pyridyl]amino]pyrimidin-4-yl]cyclopropanecarboxamide], in experiment [1], the pIC50 is 7.00 to 8.00. For the same compound, the pKd in experiment [2] is greater than 9.70.

For `Cc1cc(Nc2cc(Nc3ccc(C(=O)N(C)C)cc3N(C)S(C)(=O)=O)ncn2)nc(C)n1` [Example 77, 4-[[6-[(2,6-dimethylpyrimidin-4-yl)amino]pyrimidin-4-yl]amino]-N,N-dimethyl-3-[methyl(methylsulfonyl)amino]benzamide], the pIC50 in experiment [1] was 7.00 to 8.00. In experiment [2], this compound gave a pKd greater than 9.70. Taken in the same sequence, the figures for `CN=S(C)(=O)c1c(C)cccc1Nc1cc(Nc2cc(C)nc(C)n2)ncn1` (centres unmarked) [Example 116, N6-(2,6-dimethylpyrimidin-4-yl)-N4-[2-(N,S-dimethylsulfonimidoyl)-3-methyl-phenyl]pyrimidine-4,6-diamine] were 7.00 to 8.00 and 9.00 to 9.70. Taken in the same sequence, the figures for `Cc1cc(Nc2cc(Nc3cccc(F)c3N(C)S(C)(=O)=O)ncn2)nc(C)n1` [Example 76, N-[2-[[6-[(2,6-dimethylpyrimidin-4-yl)amino]pyrimidin-4-yl]amino]-6-fluorophenyl]-N-methylmethanesulfonamide] were 7.00 to 8.00 and greater than 9.70.

For the compound `COCc1nc(-c2cccc(Nc3cc(Nc4cc(C)nc(C)n4)ncn3)c2OC)no1` [Example 30, N4-(2,6-dimethylpyrimidin-4-yl)-N6-[2-methoxy-3-[5-(methoxymethyl)-1,2,4-oxadiazol-3-yl]phenyl]pyrimidine-4,6-diamine], the pIC50 in experiment [1] was 6.00 to 7.00. The negative-log Kd (pKd) in experiment [2] is 9.00 to 9.70.

For `COc1ccccc1Nc1cc(Nc2cc(C)nc(C)n2)ncn1` [Example 23, N6-(2,6-dimethylpyrimidin-4-yl)-N4-(2-methoxyphenyl)pyrimidine-4,6-diamine], in experiment [1], the pIC50 was 6.00 to 7.00. The compound further had a negative logarithm of the Kd (pKd) in experiment [2] of 8.00 to 9.00. As for `COc1c(Nc2cc(Nc3cc(C)nc(C)n3)ncn2)cccc1-c1ncn(CC2CCCO2)n1` (centres unmarked) [Example 59, N4-(2,6-dimethylpyrimidin-4-yl)-N6-[2-methoxy-3-[1-(tetrahydrofuran-2-ylmethyl)-1,2,4-triazol-3-yl]phenyl]pyrimidine-4,6-diamine], the pIC50 in experiment [1] was 7.00 to 8.00. Turning to `COc1c(Nc2cc(Nc3cc(C)nc(C)n3)ncn2)cccc1-c1ncn(CC2CCOC2)n1` (centres unmarked) [Example 60, N6-(2,6-dimethylpyrimidin-4-yl)-N4-[2-methoxy-3-[1-(tetrahydrofuran-3-ylmethyl)-1,2,4-triazol-3-yl]phenyl]pyrimidine-4,6-diamine], the pIC50 in experiment [1] was 7.00 to 8.00. `COc1cc(-c2nc(C(F)(F)F)n(C)n2)ccc1Nc1cc(Nc2cc(C)nc(C)n2)ncn1` [Example 82, N6-(2,6-dimethylpyrimidin-4-yl)-N4-[2-methoxy-4-[1-methyl-5-(trifluoromethyl)-1,2,4-triazol-3-yl]phenyl]pyrimidine-4,6-diamine] showed a pKd in experiment [2] of 8.00 to 9.00. Take `COc1c(Nc2cc(Nc3cc(C)nc(C)n3)ncn2)cccc1-c1ncn(C(F)F)n1` [Example 54, N4-[3-[1-(difluoromethyl)-1,2,4-triazol-3-yl]-2-methoxy-phenyl]-N6-(2,6-dimethylpyrimidin-4-yl)pyrimidine-4,6-diamine]: the pIC50 in experiment [1] is 6.00 to 7.00. Consider `COc1c(Nc2cc(Nc3cc(C)nc(C)n3)ncn2)cccc1-c1ncn(CC2CCCOC2)n1` (centres unmarked) [Example 57, N4-(2,6-dimethylpyrimidin-4-yl)-N6-[2-methoxy-3-[1-(tetrahydropyran-3-ylmethyl)-1,2,4-triazol-3-yl]phenyl]pyrimidine-4,6-diamine], for which, in experiment [1], the pIC50 is 7.00 to 8.00. `COc1c(-c2ncn(C)n2)ccnc1Nc1cc(Nc2ccc(F)c(C)n2)ncn1` [Example 174, N4-(5-fluoro-6-methyl-2-pyridyl)-N6-[3-methoxy-4-(1-methyl-1,2,4-triazol-3-yl)-2-pyridyl]pyrimidine-4,6-diamine]: the pIC50 in experiment [1] is 7.00 to 8.00. For the compound `CN=S(C)(=O)c1cc(C2CC2)ccc1Nc1cc(Nc2cc(C)nc(C)n2)ncn1` (centres unmarked) [Example 118, N4-[4-cyclopropyl-2-(N,S-dimethylsulfonimidoyl)phenyl]-N6-(2,6-dimethylpyrimidin-4-yl)pyrimidine-4,6-diamine], the pIC50 in experiment [1] is greater than 8.00.

As for `COc1c(Nc2cc(Nc3cc(C)nc(C)n3)ncn2)cccc1-c1ncn(C2CC(O)C2)n1` (centres unmarked) [Example 58, 3-[3-[3-[[6-[(2,6-dimethylpyrimidin-4-yl)amino]pyrimidin-4-yl]amino]-2-methoxy-phenyl]-1,2,4-triazol-1-yl]cyclobutanol], the negative-log IC50 (pIC50) in experiment [1] is 6.00 to 7.00. As for `[2H]C([2H])([2H])N(c1cc(-c2cnn(C)c2C)ccc1Nc1cc(Nc2cc(C)nc(C)n2)ncn1)S(C)(=O)=O` [Example 98, N-[5-(1,5-dimethylpyrazol-4-yl)-2-[[6-[(2,6-dimethylpyrimidin-4-yl)amino]pyrimidin-4-yl]amino]phenyl]-N-(trideuteriomethyl)methanesulfonamide], the pIC50 in experiment [1] is less than 6.00. Turning to `Cc1cc(Nc2cc(Nc3ncc(-c4cnn(C)c4C)cc3[S+](C)[O-])ncn2)nc(C)n1` (centres unmarked) [Example 173, N4-[5-(1,5-dimethylpyrazol-4-yl)-3-methylsulfinyl-2-pyridyl]-N6-(2,6-dimethylpyrimidin-4-yl)pyrimidine-4,6-diamine], the pIC50 in experiment [1] was greater than 8.00. With `Cc1cc(Nc2cc(Nc3cnccc3N(C)S(C)(=O)=O)ncn2)nc(C)n1` [Example 35, N-[3-[[6-[(2,6-dimethylpyrimidin-4-yl)amino]pyrimidin-4-yl]amino]pyridin-4-yl]-N-methylmethanesulfonamide], the pKd in experiment [2] was less than 8.00.

Regarding `COc1ccc(Nc2cc(Nc3cc(C)nc(C)n3)ncn2)c(OC)c1` [Example 17, N4-(2,4-dimethoxyphenyl)-N6-(2,6-dimethylpyrimidin-4-yl)pyrimidine-4,6-diamine], the pIC50 in experiment [1] is less than 6.00. The same measure, in the same setting: as for `Cc1cc(Nc2cc(Nc3ccccc3-c3ncn(C)n3)ncn2)nc(C)n1` [Example 79, N6-(2,6-dimethylpyrimidin-4-yl)-N4-[2-(1-methyl-1,2,4-triazol-3-yl)phenyl]pyrimidine-4,6-diamine], the figure is less than 6.00; as for `Cc1cc(Nc2cc(Nc3ncc(C4CCCCO4)cc3S(C)(=O)=O)ncn2)nc(C)n1` (centres unmarked) [Example 175, 6-N-(2,6-dimethylpyrimidin-4-yl)-4-N-[3-methylsulfonyl-5-(oxan-2-yl)pyridin-2-yl]pyrimidine-4,6-diamine], greater than 8.00. As to `COc1c(Nc2cc(Nc3cc(C)nc(C)n3)ncn2)cccc1C1CCCCO1` (centres unmarked) [Example 56, N6-(2,6-dimethylpyrimidin-4-yl)-N4-(2-methoxy-3-tetrahydropyran-2-yl-phenyl)pyrimidine-4,6-diamine], in experiment [1], the pIC50 was less than 6.00.
